According to ChEMBL document CHEMBL1155464, “Potent tricyclic pyrazole tetrazole agonists of the nicotinic acid receptor (GPR109a)” (Bioorg Med Chem Lett, 2010):
pIC50: −log10 of the molar value. Calls of active or inactive are those of the source. The rule behind the calls is not given here.

Legend:
[1] = target: Hydroxycarboxylic acid receptor 3 (Homo sapiens) (UniProt P49019); assay: Agonist activity at GPR109b; assay type: functional
[2] = organism: Mus musculus; assay: Inhibition of prostaglandin-induced vasodilation in mouse; assay type: functional, organism-based
[3] = system: Mus musculus; assay: Induction of vasodilation in mouse assessed as laser doppler changes in ears at 100 mg/kg; assay type: functional, organism-based; design: dose 100 mg/kg
[4] = organism: Mus musculus; assay: Inhibition of niacin-induced vasodilation in mouse; assay type: functional, organism-based
[5] = target: Hydroxycarboxylic acid receptor 3 (Homo sapiens) (UniProt P49019); assay: Agonist activity at GPR109b at 5 to 10 uM; assay type: functional
[6] = Half life in monkey at 3 mg/kg, iv and 10 mg/kg, po; assay type: ADME, organism-based, Macaca mulatta; details: rhesus monkey, in vivo
[7] = Plasma clearance in mouse at 3 mg/kg, iv and 10 mg/kg, po; assay type: ADME, organism-based
[8] = system: Mus musculus; assay: Antidyslipidemic activity in po dosed mouse assessed as reduction of plasma free fatty acids; assay type: functional
[9] = Oral bioavailability in mouse at 10 mg/kg; assay type: ADME, organism-based; details: in vivo
[10] = Cmax in rat at 3 mg/kg, iv and 10 mg/kg, po; assay type: ADME, organism-based; details: in vivo
[11] = Half life in dog at 3 mg/kg, iv and 10 mg/kg, po; assay type: ADME, organism-based, Canis lupus familiaris; details: in vivo
[12] = Oral bioavailability in dog at 10 mg/kg; assay type: ADME, organism-based, Canis lupus familiaris; details: in vivo
[13] = Cmax in monkey at 3 mg/kg, iv and 10 mg/kg, po; assay type: ADME, organism-based, Macaca mulatta; details: rhesus monkey, in vivo
[14] = Half life in mouse at 3 mg/kg, iv and 10 mg/kg, po; assay type: ADME, organism-based; details: in vivo
[15] = Half life in rat at 3 mg/kg, iv and 10 mg/kg, po; assay type: ADME, organism-based; details: in vivo
[16] = Plasma clearance in dog at 3 mg/kg, iv and 10 mg/kg, po; assay type: ADME, organism-based, Canis lupus familiaris
[17] = Volume of distribution at steady state in dog at 3 mg/kg, iv and 10 mg/kg, po; assay type: ADME, organism-based, Canis lupus familiaris; details: in vivo, read-out: Vdss
[18] = Cmax in dog at 3 mg/kg, iv and 10 mg/kg, po; assay type: ADME, organism-based, Canis lupus familiaris; details: in vivo
[19] = Cmax in mouse at 3 mg/kg, iv and 10 mg/kg, po; assay type: ADME, organism-based; details: in vivo
[20] = Oral bioavailability in monkey at 10 mg/kg; assay type: ADME, organism-based, Macaca mulatta; details: rhesus monkey, in vivo
[21] = Antidyslipidemic activity in human adipocytes assessed as inhibition of isoproteranol-induced production of free fatty acids; details: Adipocyte
[22] = Plasma clearance in monkey at 3 mg/kg, iv and 10 mg/kg, po; assay type: ADME, organism-based, Macaca mulatta; details: rhesus monkey
[23] = Oral bioavailability in rat at 10 mg/kg; assay type: ADME, organism-based; details: in vivo
[24] = Volume of distribution at steady state in mouse at 3 mg/kg, iv and 10 mg/kg, po; assay type: ADME, organism-based; details: in vivo, read-out: Vdss
[25] = Volume of distribution at steady state in rat at 3 mg/kg, iv and 10 mg/kg, po; assay type: ADME, organism-based; details: in vivo, read-out: Vdss
[26] = Plasma clearance in rat at 3 mg/kg, iv and 10 mg/kg, po; assay type: ADME, organism-based
[27] = Volume of distribution at steady state in monkey at 3 mg/kg, iv and 10 mg/kg, po; assay type: ADME, organism-based, Macaca mulatta; details: rhesus monkey, in vivo, read-out: Vdss

Hydroxycarboxylic acid receptor 3 (Homo sapiens), sequence (P49019 whole entry): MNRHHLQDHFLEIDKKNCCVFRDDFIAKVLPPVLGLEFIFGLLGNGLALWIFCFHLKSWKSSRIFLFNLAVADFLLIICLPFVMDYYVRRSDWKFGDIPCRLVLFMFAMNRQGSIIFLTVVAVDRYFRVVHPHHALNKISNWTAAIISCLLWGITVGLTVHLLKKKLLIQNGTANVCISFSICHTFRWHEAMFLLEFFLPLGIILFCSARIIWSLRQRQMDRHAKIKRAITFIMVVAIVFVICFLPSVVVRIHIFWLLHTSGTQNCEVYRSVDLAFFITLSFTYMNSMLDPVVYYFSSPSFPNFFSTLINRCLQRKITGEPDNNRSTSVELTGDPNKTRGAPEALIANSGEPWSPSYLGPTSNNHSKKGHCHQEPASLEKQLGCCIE

## C=CC[C@H]1[C@H]2Cc3c(-c4nnn[nH]4)n[nH]c3[C@H]21
[1]
  Activity: inactive

## CCCCC[C@@H]1[C@H]2Cc3c(-c4nnn[nH]4)n[nH]c3[C@@H]12
[1]
  Activity: inactive

## C1CC1[C@@H]1[C@H]2Cc3c(-c4nnn[nH]4)n[nH]c3[C@H]21
[1]
  Activity: inactive

## C=CC[C@@H]1[C@H]2Cc3c(-c4nnn[nH]4)n[nH]c3[C@@H]12
[1]
  Activity: inactive

## CC(C)C[C@H]1C2Cc3c(-c4nnn[nH]4)n[nH]c3[C@H]21 (stereo not given in full)
[1]
  Activity: inactive

## C1c2c(-c3nnn[nH]3)n[nH]c2[C@H]2C[C@@H]12 (stereo in doubt; (+)17a)
[2]
  Activity: inactive
[3]
  Activity: inactive
[4]
  Activity: Active
[1]
  Activity: inactive

## CC[C@@H]1[C@H]2Cc3c(-c4nnn[nH]4)n[nH]c3[C@@H]12
[1]
  Activity: inactive

## CCCC[C@@H]1[C@H]2Cc3c(-c4nnn[nH]4)n[nH]c3[C@@H]12
[5]
  Activity: Active
[1]
  Activity: inactive

## C1c2c(-c3nnn[nH]3)n[nH]c2[C@H]2C[C@@H]12 (stereo in doubt; (+)17a) [3-(1H-TETRAZOL-5-YL)-4,4A,5,5A-TETRAHYDRO-1H-CYCLOPROPA[4,5]CYCLOPENTA[1,2-C]PYRAZOLE (STRUCTURAL MIX)]
[6]
  half-life: 7.3 h
[7]
  clearance: 61.6 mL/min/kg
[8]
  ED50: 0.52 mg/kg
[9]
  bioavailability: 97%
[10]
  Cmax: 4.9 µM
[11]
  half-life: 1.9 h
[12]
  bioavailability: > 100%
[13]
  Cmax: 11.7 µM
[14]
  half-life: 2.4 h
[15]
  half-life: 1.9 h
[16]
  clearance: 12.4 mL/min/kg
[17]
  Vd: 0.53 L/kg
[18]
  Cmax: 36.9 µM
[19]
  Cmax: 2 µM
[20]
  bioavailability: > 100%
[21]
  pIC50: 7.05
[22]
  clearance: 13.9 mL/min/kg
[23]
  bioavailability: 37%
[24]
  Vd: 3.4 L/kg
[25]
  Vd: 0.34 L/kg
[26]
  clearance: 25.5 mL/min/kg
[27]
  Vd: 0.96 L/kg

## C=C[C@H]1[C@H]2Cc3c(-c4nnn[nH]4)n[nH]c3[C@@H]12
[1]
  Activity: inactive

## O=C(O)c1cccnc1 [NIACIN]
[21]
  pIC50: 7.22
[1]
  Activity: inactive

## CC(C)CC[C@@H]1C2Cc3c(-c4nnn[nH]4)n[nH]c3[C@H]21 (stereo not given in full)
[1]
  Activity: inactive

## C=C[C@@H]1[C@H]2Cc3c(-c4nnn[nH]4)n[nH]c3[C@@H]12
[1]
  Activity: inactive

## C1c2c(-c3nnn[nH]3)n[nH]c2[C@H]2C[C@@H]12 (stereo in doubt; (-)17a)
[1]
  Activity: inactive

## C[C@H]1[C@H]2Cc3c(-c4nnn[nH]4)n[nH]c3[C@@H]12
[1]
  Activity: inactive

## C1Cc2[nH]nc(-c3nn[nH]n3)c2C1
[8]
  ED50: 3.1 mg/kg
[21]
  pIC50: 6.06
[1]
  Activity: inactive

## CC(C)C[C@@H]1[C@H]2Cc3c(-c4nnn[nH]4)n[nH]c3[C@H]21
[5]
  Activity: Active
[1]
  Activity: inactive

## C[C@@H]1[C@H]2Cc3c(-c4nnn[nH]4)n[nH]c3[C@@H]12
[1]
  Activity: inactive

## C1CCC2(C1)[C@@H]1c3[nH]nc(-c4nnn[nH]4)c3C[C@@H]12
[1]
  Activity: inactive

## COC[C@@H]1[C@H]2Cc3c(-c4nnn[nH]4)n[nH]c3[C@@H]12
[1]
  Activity: inactive

## C1c2c(-c3nnn[nH]3)n[nH]c2C2CC12 (racemic)
[1]
  Activity: inactive

## C/C=C/[C@@H]1[C@H]2Cc3c(-c4nnn[nH]4)n[nH]c3[C@@H]12
[1]
  Activity: inactive

## CCC[C@@H]1[C@H]2Cc3c(-c4nnn[nH]4)n[nH]c3[C@@H]12
[5]
  Activity: Active
[1]
  Activity: inactive

## CCCCC[C@H]1[C@H]2Cc3c(-c4nnn[nH]4)n[nH]c3[C@H]21
[1]
  Activity: inactive

## CC1(C)[C@@H]2c3[nH]nc(-c4nnn[nH]4)c3C[C@@H]21
[1]
  Activity: inactive
